Data on five molecules can be found in BindingDB's records for doi:10.1016/s0960-894x(03)00528-6 (Aston University, 2003).

One may read the IC50 as the concentration that inhibits the measured activity by half. Low readings indicate greater potency in that assay, high ones weaker potency in that assay.

This test concerns the target Arachidonate 15-lipoxygenase (Oryctolagus cuniculus). Briefly: In vitro inhibitory activity of compound on rabbit reticulocyte 15-lipoxygenase.

In the case of `O=C(Nc1ccc(O)c(O)c1)c1ccc(NCc2ccccc2O)cc1` [N-(3,4-Dihydroxy-phenyl)-4-(2-hydroxy-benzylamino)-benzamide], half-maximal inhibition (IC50) required 1010 nM.

In the case of `O=C(Nc1ccc(O)c(O)c1)c1ccc(NC(=O)c2ccccc2O)cc1` [N-(4-{[(3,4-dihydroxyphenyl)amino]carbonyl}phenyl)-2-hydroxybenzamide], the half-inhibitory concentration (IC50) is 1270 nM. The IC50 values of the last two molecules are within 1.5-fold of each other.

The molecule `O=C(CCc1ccc(NC(=O)c2ccccc2O)cc1)Nc1ccc(O)c(O)c1` [N-{4-[2-(3,4-Dihydroxy-phenylcarbamoyl)-ethyl]-phenyl}-2-hydroxy-benzamide] registered an IC50 of 1450 nM.

As for `O=C(/C=C/c1ccc(NC(=O)c2ccccc2O)cc1)Nc1ccc(O)c(O)c1` [N-{4-[2-(3,4-Dihydroxy-phenylcarbamoyl)-vinyl]-phenyl}-2-hydroxy-benzamide], the half-inhibitory concentration (IC50) amounted to 1470 nM.

Turning to `O=C(Nc1ccc(NC(=O)c2ccccc2O)cc1)Nc1ccc(O)c(O)c1` [N-{4-[3-(3,4-Dihydroxy-phenyl)-ureido]-phenyl}-2-hydroxy-benzamide], the half-maximal inhibitory concentration (IC50) came to 1510 nM.
